IC50 data for 27 compounds are collected here from US10745384B2, “Indazole derivatives as αv integrin antagonists” (BRISTOL-MYERS SQUIBB COMPANY, priority 2016, dated 2020).

Each structure is given as a SMILES string. Structures can show the parent of a compound that is named as a salt.

Usually IC50 stands for the midpoint of a concentration-inhibition curve.

T1 sequence (P06756 31-992 limits assumed): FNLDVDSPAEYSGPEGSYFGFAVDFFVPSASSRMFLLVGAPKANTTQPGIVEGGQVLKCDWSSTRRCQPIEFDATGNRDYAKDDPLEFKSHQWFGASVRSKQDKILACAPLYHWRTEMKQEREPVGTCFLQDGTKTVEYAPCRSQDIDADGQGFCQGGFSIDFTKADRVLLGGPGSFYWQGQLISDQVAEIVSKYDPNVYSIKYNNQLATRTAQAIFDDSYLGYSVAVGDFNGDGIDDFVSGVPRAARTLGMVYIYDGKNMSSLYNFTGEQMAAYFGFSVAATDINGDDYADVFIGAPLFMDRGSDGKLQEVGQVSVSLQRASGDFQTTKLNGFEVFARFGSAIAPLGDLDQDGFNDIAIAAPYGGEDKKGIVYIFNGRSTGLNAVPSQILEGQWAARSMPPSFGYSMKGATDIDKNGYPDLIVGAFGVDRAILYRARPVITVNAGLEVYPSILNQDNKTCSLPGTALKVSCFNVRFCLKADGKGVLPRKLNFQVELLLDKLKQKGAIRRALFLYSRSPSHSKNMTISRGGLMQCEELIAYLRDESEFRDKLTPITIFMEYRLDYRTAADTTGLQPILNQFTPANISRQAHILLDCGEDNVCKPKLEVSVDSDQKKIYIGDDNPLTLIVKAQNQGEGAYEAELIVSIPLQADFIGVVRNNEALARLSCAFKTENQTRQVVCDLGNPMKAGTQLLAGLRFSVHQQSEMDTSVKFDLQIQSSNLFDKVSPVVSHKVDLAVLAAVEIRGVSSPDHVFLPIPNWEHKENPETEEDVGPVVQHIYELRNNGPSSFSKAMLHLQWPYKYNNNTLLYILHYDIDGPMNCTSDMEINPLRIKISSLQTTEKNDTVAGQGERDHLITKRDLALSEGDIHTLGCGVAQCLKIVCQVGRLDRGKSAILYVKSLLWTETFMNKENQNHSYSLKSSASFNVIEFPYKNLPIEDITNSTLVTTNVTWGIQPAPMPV
T1 sequence (P18564 22-707 limits assumed): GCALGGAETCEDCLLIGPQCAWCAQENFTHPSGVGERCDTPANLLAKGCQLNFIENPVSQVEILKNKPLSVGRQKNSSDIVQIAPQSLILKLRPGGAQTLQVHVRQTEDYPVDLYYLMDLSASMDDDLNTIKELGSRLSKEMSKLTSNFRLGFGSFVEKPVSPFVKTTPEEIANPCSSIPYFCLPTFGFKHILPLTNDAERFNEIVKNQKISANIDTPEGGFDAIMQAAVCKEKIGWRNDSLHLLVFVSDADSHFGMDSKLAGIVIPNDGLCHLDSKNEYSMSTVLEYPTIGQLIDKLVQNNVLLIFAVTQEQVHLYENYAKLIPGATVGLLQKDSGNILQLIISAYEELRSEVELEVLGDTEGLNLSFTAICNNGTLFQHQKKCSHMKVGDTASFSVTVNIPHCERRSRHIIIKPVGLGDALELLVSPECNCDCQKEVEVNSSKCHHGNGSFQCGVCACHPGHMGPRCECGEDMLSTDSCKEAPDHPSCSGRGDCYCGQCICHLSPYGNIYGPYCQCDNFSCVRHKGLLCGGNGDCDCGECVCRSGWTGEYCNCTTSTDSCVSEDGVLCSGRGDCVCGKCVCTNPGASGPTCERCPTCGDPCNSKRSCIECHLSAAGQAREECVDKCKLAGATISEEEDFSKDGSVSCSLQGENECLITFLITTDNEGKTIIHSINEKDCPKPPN

This test concerns the target T1, human αVβ6 (Homo sapiens, UniProt P06756+P18564).
T1 construct: purchased R & D systems 3817-AV
Nature of the test: human αVβ6 HTRF binding assay. The note with it: recombinant human αVβ6 integrin, FITC-conjugated fibronectin. The procedure: All binding assays used the HTRF (homogeneous time resolved fluorescence) technology from Cisbio International, therefore all assays are described as HTRF binding assays. The assay results for the Examples are listed above together with the characterization data. The HTRF binding assays are established for the following integrins: human αVβ6, human αVβ1, human αVβ3, human αVβ5, and human αVβ8. All assays used the following assay buffer: 20 mM Tris, pH 7.4, 1 mM MgCl2, 1 mM MnCl2, 0.01% Tween 20, and 0.01% BSA. Alternatively, a SPA-based assay was used for evaluation of receptor binding.
The following describes the components and a representative procedure for the human αVβ6 HTRF binding assay: Recombinant human αVβ6 Integrin (R & D systems, 3817-AV) was biotinylated. Biotinylated human αVβ6 Integrin was added to assay vessel at a final concentration of 1.25 nM. FITC-conjugated fibronectin (Cytoskeleton, FNR02) was then added at the final concentration of 5 nM. The mixture was centrifuged at 600 rpm for three minutes using Thermo Fisher Heraeus Multifuge X3 centrifuge and then incubated at room temperature for an hour. Streptavidin Terbium (Cisbio international 610STLB) was then added at the final concentration of 0.625 nM. The resulting mixture was centrifuged at 600 rpm for three minutes using Thermo Fisher Heraeus Multifuge X3 centrifuge and then incubated at room temperature overnight in dark before reading HTRF signals. […]
In general terms: TR-FRET usually uses a lanthanide donor and a delayed reading to cut background.
Take `CC(C)(O)c1cncc(C(CC(=O)O)n2ncc3cc(OCCc4ccc5c(n4)NCCC5)ccc32)c1` (stereo not drawn) [Example 144, 3-(5-(2-hydroxypropan-2-yl)pyridin-3-yl)-3-(5-(2-(5,6,7,8-tetrahydro-1,8-naphthyridin-2-yl)ethoxy)-1H-indazol-1-yl)propanoic acid]: the half-maximal inhibitory concentration (IC50) was 5 nM.

As for `CS(=O)(=O)c1cncc(C(CC(=O)O)n2ncc3cc(OCCc4ccc5c(n4)NCCC5)ccc32)c1` (stereo not drawn) [Example 125, 3-(5-(Methylsulfonyl)pyridin-3-yl)-3-(5-(2-(5,6,7,8-tetrahydro-1,8-naphthyridin-2-yl)ethoxy)-1H-indazol-1-yl)propanoic acid, 2 TFA], the IC50 was determined as 4.7 nM.

For `Cn1cnc2ncc(C(CC(=O)O)n3ncc4cc(OCCc5ccc6c(n5)NCCC6)ccc43)cc21` (stereo not drawn) [Example 140, 3-(1-methyl-1H-imidazo[4,5-b]pyridin-6-yl)-3-(5-(2-(5,6,7,8-tetrahydro-1,8-naphthyridin-2-yl)ethoxy)-1H-indazol-1-yl)propanoic acid], the IC50 turned out to be 5.7 nM.

For `CN1CCN(C(=O)c2cncc(C(CC(=O)O)n3ncc4cc(OCCc5ccc6c(n5)NCCC6)ccc43)c2)CC1` (stereo not drawn) [Example 154, 3-(5-(4-methylpiperazine-1-carbonyl)pyridin-3-yl)-3-(5-(2-(5,6,7,8-tetrahydro-1,8-naphthyridin-2-yl)ethoxy)-1H-indazol-1-yl)propanoic acid], the IC50 came out at 29 nM.

Turning to `O=C(O)CC(c1cnc2c(c1)CCCN2)n1ncc2cc(OCCc3ccc4c(n3)NCCC4)ccc21` (stereo not drawn) [Example 172, 3-(5-(2-(5,6,7,8-Tetrahydro-1,8-naphthyridin-2-yl)ethoxy)-1H-indazol-1-yl)-3-(5,6,7,8-tetrahydro-1,8-naphthyridin-3-yl)propanoic acid], the IC50 was 12 nM.

Consider `O=C(O)C[C@@H](c1cnc2ccccc2c1)n1cc2ccc(CCCC3CCc4cccnc4N3)cc2n1` (stereo partly drawn) [Example 88, (3S)-3-(Quinolin-3-yl)-3-(6-(3-(1,2,3,4-tetrahydro-1,8-naphthyridin-2-yl)propyl)-2H-indazol-2-yl)propanoic acid], for which the IC50 amounted to 20 nM.

In the case of `O=C(O)CC(c1ccc2cnccc2c1)n1ncc2cc(OCCc3ccc4c(n3)NCCC4)ccc21` (stereo not drawn) [Example 94, 3-(Isoquinolin-6-yl)-3-(5-(2-(5,6,7,8-tetrahydro-1,8-naphthyridin-2-yl)ethoxy)-1H-indazol-1-yl) propanoic acid, 2 TFA], the IC50 was found to be 13 nM.

On to `O=C(O)CC(c1ccn2cnnc2c1)n1ncc2cc(OCCc3ccc4c(n3)NCCC4)ccc21` (stereo not drawn) [Example 130, 3-([1,2,4]Triazolo[4,3-a]pyridin-7-yl)-3-(5-(2-(5,6,7,8-tetrahydro-1,8-naphthyridin-2-yl)ethoxy)-1H-indazol-1-yl)propanoic acid], for which the IC50 is 57 nM.

Regarding `COc1ccc([C@@H](CC(=O)O)n2ncc3cc(OCCc4ccc5c(n4)NCCC5)ccc32)cn1` [Example 40, (R)-3-(6-Methoxypyridin-3-yl)-3-(5-(2-(5,6,7,8-tetrahydro-1,8-naphthyridin-2-yl)ethoxy)-1H-indazol-1-yl)propanoic acid], the IC50 was found to be 210 nM.

For `COc1cnc(C(CC(=O)O)n2ncc3cc(OCCc4ccc5c(n4)NCCC5)ccc32)cn1` (stereo not drawn) [Example 79, 3-(5-Methoxypyrazin-2-yl)-3-(5-(2-(5,6,7,8-tetrahydro-1,8-naphthyridin-2-yl)ethoxy)-1H-indazol-1-yl)propanoic acid, TFA], the IC50 was determined as 33 nM.

Regarding `O=C(O)CC(c1cncc(-n2cccn2)c1)n1ncc2cc(OCCc3ccc4c(n3)NCCC4)ccc21` (stereo not drawn) [Example 161, 3-(5-(1H-pyrazol-1-yl)pyridin-3-yl)-3-(5-(2-(5,6,7,8-tetrahydro-1,8-naphthyridin-2-yl)ethoxy)-1H-indazol-1-yl)propanoic acid], the IC50 worked out at 5.5 nM.

In the case of `CN(C)C(=O)c1cccc([C@@H](CC(=O)O)n2ncc3cc(OCCc4ccc5c(n4)NCCC5)ccc32)c1` [Example 37, (R)-3-(3-(Dimethylcarbamoyl)phenyl)-3-(5-(2-(5,6,7,8-tetrahydro-1,8-naphthyridin-2-yl)ethoxy)-1H-indazol-1-yl)propanoic acid], the IC50 is 1100 nM.

As to `COc1ncc(C(CC(=O)O)n2ncc3cc(OCCc4ccc5c(n4)NCCC5)ccc32)cc1C1OCCO1` (stereo not drawn) [Example 133, 3-(5-(1,3-Dioxolan-2-yl)-6-methoxypyridin-3-yl)-3-(5-(2-(5,6,7,8-tetrahydro-1,8-naphthyridin-2-yl)ethoxy)-1H-indazol-1-yl)propanoic acid], the IC50 turned out to be 400 nM.

On to `CN(C)CCNC(=O)c1cncc(C(CC(=O)O)n2ncc3cc(OCCc4ccc5c(n4)NCCC5)ccc32)c1` (stereo not drawn) [Example 158, 3-(5-((2-(dimethylamino)ethyl)carbamoyl)pyridin-3-yl)-3-(5-(2-(5,6,7,8-tetrahydro-1,8-naphthyridin-2-yl)ethoxy)-1H-indazol-1-yl)propanoic acid], for which the IC50 turned out to be 13 nM.

With `O=C(O)C[C@H](c1cncc(C2OCCO2)c1)n1ncc2cc(OCCc3ccc4c(n3)NCCC4)ccc21` [Example 138, (R)-3-(5-(1,3-dioxolan-2-yl)pyridin-3-yl)-3-(5-(2-(5,6,7,8-tetrahydro-1,8-naphthyridin-2-yl)ethoxy)-1H-indazol-1-yl)propanoic acid], the IC50 was 43 nM.

For the compound `O=C(O)CC(c1cnc2c(c1)OCO2)n1ncc2cc(OCCc3ccc4c(n3)NCCC4)ccc21` (stereo not drawn) [Example 132, 3-([1,3]Dioxolo[4,5-b]pyridin-6-yl)-3-(5-(2-(5,6,7,8-tetrahydro-1,8-naphthyridin-2-yl)ethoxy)-1H-indazol-1-yl)propanoic acid], the IC50 is 22 nM.

`CN(C)Cc1cccc(C(CC(=O)O)n2ncc3cc(OCCc4ccc5c(n4)NCCC5)ccc32)c1` (stereo not drawn) [Example 60, 3-(3-((Dimethylamino)methyl)phenyl)-3-(5-(2-(5,6,7,8-tetrahydro-1,8-naphthyridin-2-yl)ethoxy)-1H-indazol-1-yl)propanoic acid, TFA]: the IC50 stood at 5.1 nM.

Turning to `CN(C)C(=O)c1cncc(C(CC(=O)O)n2ncc3cc(OCCc4ccc5c(n4)NCCC5)ccc32)c1` (stereo not drawn) [Example 153, 3-(5-(dimethylcarbamoyl)pyridin-3-yl)-3-(5-(2-(5,6,7,8-tetrahydro-1,8-naphthyridin-2-yl)ethoxy)-1H-indazol-1-yl)propanoic acid], the IC50 was found to be 17 nM.

In the case of `O=C(O)CC1(n2ncc3cc(OCCc4ccc5c(n4)NCCC5)ccc32)CC1` [Example 76, 2-(1-(5-(2-(5,6,7,8-tetrahydro-1,8-naphthyridin-2-yl)elhoxy)-1H-indazol-1-yl)cyclopropyl)acetic acid, TFA], the IC50 was 3400 nM.

In the case of `O=C(O)CC(c1ccc2c(n1)NCCC2)n1ncc2cc(OCCc3ccc4c(n3)NCCC4)ccc21` (stereo not drawn) [Example 116, 3-(5,6,7,8-Tetrahydro-1,8-naphthyridin-2-yl)-3-(5-(2-(5,6,7,8-tetrahydro-1,8-naphthyridin-2-yl)ethoxy)-1H-indazol-1-yl)propanoic acid, 2 TFA], the IC50 came out at 5.9 nM.

In the case of `Cn1cc2ncc(C(CC(=O)O)n3ncc4cc(OCCc5ccc6c(n5)NCCC6)ccc43)cc2n1` (stereo not drawn) [Example 136, 3-(2-Methyl-2H-pyrazolo[4,3-b]pyridin-6-yl)-3-(5-(2-(5,6,7,8-tetrahydro-1,8-naphthyridin-2-yl)ethoxy)-1H-indazol-1-yl)propanoic acid], the IC50 turned out to be 41 nM.

As for `CC(=O)NCc1cncc(C(CC(=O)O)n2ncc3cc(OCCc4ccc5c(n4)NCCC5)ccc32)c1` (stereo not drawn) [Example 171], the IC50 was determined as 46 nM.

For the compound `O=C(O)CC(c1ccc2ncsc2c1)n1ncc2cc(OCCc3ccc4c(n3)NCCC4)ccc21` (stereo not drawn) [Example 110, 3-(Benzo[d]thiazol-6-yl)-3-(5-(2-(5,6,7,8-tetrahydro-1,8-naphthyridin-2-yl)ethoxy)-1H-indazol-1-yl)propanoic acid, TFA], the IC50 was determined as 19 nM.

As to `O=C(N[C@@H](Cn1cc2cc(OCc3ccc4c(n3)NCCC4)ccc2n1)C(=O)O)OCc1ccccc1` [Example 98, (S)-2-(((Benzyloxy)carbonyl)amino)-3-(5-((5,6,7,8-tetrahydro-1,8-naphthyridin-2-yl)methoxy)-2H-indazol-2-yl)propanoic acid], the half-maximal inhibitory concentration (IC50) was 160 nM.

On to `O=C(O)CC(c1ccc2oc3ccccc3c2c1)n1ncc2cc(OCCc3ccc4c(n3)NCCC4)ccc21` (stereo not drawn) [Example 54, 3-(Dibenzo[b,d]furan-2-yl)-3-(5-(2-(5,6,7,8-tetrahydro-1,8-naphthyridin-2-yl)ethoxy)-1H-indazol-1-yl)propanoic acid, TFA], for which the IC50 amounted to 30 nM.

For `O=C(O)CC(c1ccc2nccnc2c1)n1ncc2cc(OCCc3ccc4c(n3)NCCC4)ccc21` (stereo not drawn) [Example 80, 3-(Quinoxalin-6-yl)-3-(5-(2-(5,6,7,8-tetrahydro-1,8-naphthyridin-2-yl)ethoxy)-1H-indazol-1-yl)propanoic acid, TFA], the IC50 amounted to 13 nM.

Take `O=C(O)CC(CCC(F)(F)F)n1ncc2c(CCCc3ccc4c(n3)NCCC4)cccc21` (stereo not drawn) [Example 31, 6,6,6-Trifluoro-3-(4-(3-(5,6,7,8-tetrahydro-1,8-naphthyridin-2-yl)propyl)-1H-indazol-1-yl)hexanoic acid]: the concentration for half-maximal inhibition (IC50) was determined as 3300 nM.
